Legend:
KRAS (G12D) = biological target: T1, KRAS (G12D) (Homo sapiens, UniProt P01116, G12D); experiment: KRAS (G12D) cellular degradation assay in AsPC-1 cells; format: cell-based; settings: 24 hours, antibody fluorescence (Odyssey CLX), DC50 half-maximal degradation concentration
T1 construct: in-cell western with KRAS G12D antibody after 24 h
In short: (§1)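 Degradation: 22,000 cells/well grown to ~90% confluency, 24 h compound, fixed/permeabilised, anti-KRAS G12D + β-actin antibodies, near-IR fluorescence, DC50. Proliferation: 3,500 cells/well overnight, 6 d compound, CellTiter Glo luminescence, IC50. Dosing […]–1.5 nM final, 1:3 steps.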

AsPC-1 cells = experiment: AsPC-1 cell proliferation assay (CellTiter Glo); format: cell-based; settings: 6 days
In short: as §1

T1 sequence (P01116 1-188 isoform P01116-2 G12D): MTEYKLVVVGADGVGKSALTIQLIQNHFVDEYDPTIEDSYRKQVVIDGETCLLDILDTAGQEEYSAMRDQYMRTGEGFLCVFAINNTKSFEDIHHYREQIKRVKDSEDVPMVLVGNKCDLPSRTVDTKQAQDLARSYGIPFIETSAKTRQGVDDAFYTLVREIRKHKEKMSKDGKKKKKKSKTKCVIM

**Q.** CCn1cc2c(C#C[C@H](CO)NC(=O)[C@@H]3C[C@@H](O)CN3C(=O)[C@H](C(C)C)n3cc(-c4ccc(COc5c(-c6c(C)c(F)cc7[nH]ncc67)c(C6CC6)cc6c(N7C[C@@H]8C[C@H]7CN8)nc(OC[C@H](C)OC)nc56)cc4)nn3)cccc2n1 [Example 162, (2S,4R)-1-((2S)-2-(4-(4-(((4-((1S,4S)-2,5-diazabicyclo[2.2.1]heptan-2-yl)-6-cyclopropyl-7-(6-fluoro-5-methyl-1H-indazol-4-yl)-2-((S)-2-methoxypropoxy)quinazolin-8-yl)oxy)methyl)phenyl)-1H-1,2,3-triazol-1-yl)-3-methylbutanoyl)-N—((R)-4-(2-ethyl-2H-indazol-4-yl)-1-hydroxybut-3-yn-2-yl)-4-hydroxypyrrolidine-2-carboxamide] was tested. Which DC50 (KRAS (G12D)) did it give?
**A.** Its DC50 is under 10 nM.

**Q.** What about the IC50 (AsPC-1 cells; Homo sapiens, ASPC1, 144 h) of the same compound?
**A.** The IC50 was under 10 nM.

**Q.** What does the source list for CO[C@H]1C[C@H](Oc2nc(N3CCCNCC3)c3cc(C4CC4)c(-c4c(C)c(F)cc5[nH]ncc45)c(OCc4ccc(-c5cn([C@H](C(=O)N6C[C@H](O)C[C@H]6C(=O)N[C@@H](CO)c6ccc(-c7scnc7C)cc6)C(C)C)nn5)cc4)c3n2)C1 [Example 199, (2S,4R)-1-((2S)-2-(4-(4-(((6-cyclopropyl-4-(1,4-diazepan-1-yl)-7-(6-fluoro-5-methyl-1H-indazol-4-yl)-2-((1r,3r)-3-methoxycyclobutoxy)quinazolin-8-yl)oxy)methyl)phenyl)-1H-1,2,3-triazol-1-yl)-3-methylbutanoyl)-4-hydroxy-N—((R)-2-hydroxy-1-(4-(4-methylthiazol-5-yl)phenyl)ethyl)pyrrolidine-2-carboxamide]?
**A.** DC50 (KRAS (G12D)): < 10 nM; IC50 (AsPC-1 cells; Homo sapiens, ASPC1, 144 h): < 10 nM

**Q.** How did the DC50 (KRAS (G12D)) turn out when CCn1nccc1-c1ccc([C@@H](NC(=O)[C@@H]2C[C@@H](O)CN2C(=O)[C@H](C(C)C)n2cc(-c3ccc(COc4c(-c5c(C)c(F)cc6[nH]ncc56)c(C5CC5)cc5c(N6C[C@@H]7C[C@H]6CN7)nc(OC6CC7(CCOCC7)C6)nc45)cc3)nn2)[C@H](C)O)cc1 [Example 113, (2S,4R)-1-((2S)-2-(4-(4-(((2-((7-oxaspiro[3.5]nonan-2-yl)oxy)-4-((15,45)-2,5-diazabicyclo[2.2.1]heptan-2-yl)-6-cyclopropyl-7-(6-fluoro-5-methyl-1H-indazol-4-yl)quinazolin-8-yl)oxy)methyl)phenyl)-1H-1,2,3-triazol-1-yl)-3-methylbutanoyl)-N-((1R,2S)-1-(4-(1-ethyl-1H-pyrazol-5-yl)phenyl)-2-hydroxypropyl)-4-hydroxypyrrolidine-2-carboxamide] was run?
**A.** The DC50 was under 10 nM.

**Q.** And the IC50 (AsPC-1 cells; Homo sapiens, ASPC1, 144 h)?
**A.** The IC50 was under 10 nM.

**Q.** How did the DC50 (KRAS (G12D)) turn out when Cc1ncsc1-c1ccc([C@H](CO)NC(=O)[C@@H]2C[C@@H](O)CN2C(=O)[C@H](C(C)C)n2cc(-c3ccc(COc4c(-c5c(C)c(F)cc6[nH]ncc56)c(C5CC5)cc5c(N6CC7CCC(C6)N7)nc(OC6CCOCC6)nc45)cc3)nn2)cc1 [Example 49, (2S,4R)-1-((2S)-2-(4-(4-(((4-(3,8-diazabicyclo[3.2.1]octan-3-yl)-6-cyclopropyl-7-(6-fluoro-5-methyl-1H-indazol-4-yl)-2-((tetrahydro-2H-pyran-4-yl)oxy)quinazolin-8-yl)oxy)methyl)phenyl)-1H-1,2,3-triazol-1-yl)-3-methylbutanoyl)-4-hydroxy-N—((R)-2-hydroxy-1-(4-(4-methylthiazol-5-yl)phenyl)ethyl)pyrrolidine-2-carboxamide] was run?
**A.** The DC50 was under 10 nM.

**Q.** And the IC50 (AsPC-1 cells; Homo sapiens, ASPC1, 144 h)?
**A.** Its IC50 is under 10 nM.

**Q.** What does the source list for CCn1nccc1-c1ccc([C@H](CO)NC(=O)[C@@H]2C[C@@H](O)CN2C(=O)[C@H](C(C)C)n2cc(-c3ccc(COc4c(-c5c(C)c(F)cc6[nH]ncc56)c(C5CC5)cc5c(N6C[C@@H]7C[C@H]6CN7)nc(OC[C@H](C)OC)nc45)cc3C)nn2)cc1 [Example 44, (2S,4R)-1-((2S)-2-(4-(4-(((4-((1S,4S)-2,5-diazabicyclo[2.2.1]heptan-2-yl)-6-cyclopropyl-7-(6-fluoro-5-methyl-1H-indazol-4-yl)-2-((S)-2-methoxypropoxy)quinazolin-8-yl)oxy)methyl)-2-methylphenyl)-1H-1,2,3-triazol-1-yl)-3-methylbutanoyl)-N—((R)-1-(4-(1-ethyl-1H-pyrazol-5-yl)phenyl)-2-hydroxyethyl)-4-hydroxypyrrolidine-2-carboxamide]?
**A.** DC50 (KRAS (G12D)): < 10 nM; IC50 (AsPC-1 cells; Homo sapiens, ASPC1, 144 h): < 10 nM

**Q.** CO[C@@H](C)COc1nc(N2C[C@H]3C[C@@H]2CN3)c2cc(C3CC3)c(-c3c(C)c(F)cc4n[nH]cc34)c(OCc3ccc(-c4cn([C@H](C(=O)N5C[C@H](O)C[C@H]5C(=O)N[C@@H](CO)c5ccc(-c6c(C)noc6C)cc5)C(C)C)nn4)cc3)c2n1 (single isomer, unassigned) [Example 6A] was tested. Which DC50 (KRAS (G12D)) did it give?
**A.** The DC50 was 10 to 100 nM.

**Q.** And the IC50 (AsPC-1 cells; Homo sapiens, ASPC1, 144 h)?
**A.** Its IC50 is 10 to 100 nM.

**Q.** With CCn1nccc1-c1ccc([C@H](CO)NC(=O)[C@@H]2C[C@@H](O)CN2C(=O)[C@H](C(C)C)n2cc(-c3ccc(COc4c(-c5c(C)c(F)cc6[nH]ncc56)c(C5CC5)cc5c(N6C[C@@H]7C[C@H]6CN7)nc(O[C@H]6C[C@H](OC)C6)nc45)cc3)nn2)c2c1CC2 [Example 160, (2S,4R)-1-((2S)-2-(4-(4-(((4-((1S,4S)-2,5-diazabicyclo[2.2.1]heptan-2-yl)-6-cyclopropyl-7-(6-fluoro-5-methyl-1H-indazol-4-yl)-2-((1r,3S)-3-methoxycyclobutoxy)quinazolin-8-yl)oxy)methyl)phenyl)-1H-1,2,3-triazol-1-yl)-3-methylbutanoyl)-N—((R)-1-(5-(1-ethyl-1H-pyrazol-5-yl)bicyclo[4.2.0]octa-1(6),2,4-trien-2-yl)-2-hydroxyethyl)-4-hydroxypyrrolidine-2-carboxamide] as the compound, how does the DC50 (KRAS (G12D)) read?
**A.** The DC50 was under 10 nM.

**Q.** What about the IC50 (AsPC-1 cells; Homo sapiens, ASPC1, 144 h) of the same compound?
**A.** The IC50 was under 10 nM.

**Q.** Cc1ncsc1C#C[C@H](CO)NC(=O)[C@@H]1C[C@@H](O)CN1C(=O)[C@H](C(C)C)n1cc(-c2ccc(COc3c(-c4c(C)c(F)cc5[nH]ncc45)c(C4CC4)cc4c(N5C[C@@H]6C[C@H]5CN6)nc(OC5CCOCC5)nc34)cc2)nn1 [Example 59, (2S,4R)-1-((2S)-2-(4-(4-(((4-((1S,4S)-2,5-diazabicyclo[2.2.1]heptan-2-yl)-6-cyclopropyl-7-(6-fluoro-5-methyl-1H-indazol-4-yl)-2-((tetrahydro-2H-pyran-4-yl)oxy)quinazolin-8-yl)oxy)methyl)phenyl)-1H-1,2,3-triazol-1-yl)-3-methylbutanoyl)-4-hydroxy-N—((R)-1-hydroxy-4-(4-methylthiazol-5-yl)but-3-yn-2-yl)pyrrolidine-2-carboxamide] was tested. Which DC50 (KRAS (G12D)) did it give?
**A.** Its DC50 is under 10 nM.

**Q.** And the IC50 (AsPC-1 cells; Homo sapiens, ASPC1, 144 h)?
**A.** Its IC50 is under 10 nM.

**Q.** Which DC50 (KRAS (G12D)) does the source give for CO[C@@H](C)COc1nc(N2C[C@@H]3C[C@H]2CN3)c2cc(C3CC3)c(-c3c(C)c(F)cc4[nH]ncc34)c(OCc3ccc(-c4cn([C@H](C(=O)N5C[C@H](O)C[C@H]5C(=O)N[C@H](C#Cc5c(F)cccc5F)CO)C(C)C)nn4)cc3)c2n1 [Example 42, (2S,4R)-1-((2S)-2-(4-(4-(((4-((1S,4S)-2,5-diazabicyclo[2.2.1]heptan-2-yl)-6-cyclopropyl-7-(6-fluoro-5-methyl-1H-indazol-4-yl)-2-((S)-2-methoxypropoxy)quinazolin-8-yl)oxy)methyl)phenyl)-1H-1,2,3-triazol-1-yl)-3-methylbutanoyl)-N—((R)-4-(2,6-difluorophenyl)-1-hydroxybut-3-yn-2-yl)-4-hydroxypyrrolidine-2-carboxamide] here?
**A.** The DC50 was 10 to 100 nM.

**Q.** And the IC50 (AsPC-1 cells; Homo sapiens, ASPC1, 144 h)?
**A.** The IC50 was 10 to 100 nM.

**Q.** How did the DC50 (KRAS (G12D)) turn out when CCn1nccc1-c1ccc([C@@H](NC(=O)[C@@H]2C[C@@H](O)CN2C(=O)[C@H](C(C)C)n2cc(-c3ccc(COc4c(-c5c(C)c(F)cc6[nH]ncc56)c(C5CC5)cc5c(N6C[C@@H]7C[C@H]6CN7)nc(OC[C@H](C)OC)nc45)cc3)nn2)[C@H](C)O)c2c1CC2 [Example 85, (2S,4R)-1-((2S)-2-(4-(4-(((4-((1S,4S)-2,5-diazabicyclo[2.2.1]heptan-2-yl)-6-cyclopropyl-7-(6-fluoro-5-methyl-1H-indazol-4-yl)-2-((S)-2-methoxypropoxy)quinazolin-8-yl)oxy)methyl)phenyl)-1H-1,2,3-triazol-1-yl)-3-methylbutanoyl)-N-((1R,2S)-1-(5-(1-ethyl-1H-pyrazol-5-yl)bicyclo[4.2.0]octa-1(6),2,4-trien-2-yl)-2-hydroxypropyl)-4-hydroxypyrrolidine-2-carboxamide] was run?
**A.** Its DC50 is under 10 nM.

**Q.** What about the IC50 (AsPC-1 cells; Homo sapiens, ASPC1, 144 h) of the same compound?
**A.** Its IC50 is under 10 nM.

**Q.** CCn1nccc1-c1ccc([C@@H](NC(=O)[C@@H]2C[C@@H](O)CN2C(=O)[C@H](C(C)C)n2cc(-c3ccc(COc4c(-c5c(C)c(F)cc6[nH]ncc56)c(C5CC5)cc5c(N6C[C@@H]7C[C@H]6CN7)nc(OCC(OC)C(F)F)nc45)cc3)nn2)[C@H](C)O)cc1 (stereo partly drawn) [Example 122, (2S,4R)-1-((2S)-2-(4-(4-(((4-((1S,4S)-2,5-diazabicyclo[2.2.1]heptan-2-yl)-6-cyclopropyl-2-(3,3-difluoro-2-methoxypropoxy)-7-(6-fluoro-5-methyl-1H-indazol-4-yl)quinazolin-8-yl)oxy)methyl)phenyl)-1H-1,2,3-triazol-1-yl)-3-methylbutanoyl)-N-((1R,2S)-1-(4-(1-ethyl-1H-pyrazol-5-yl)phenyl)-2-hydroxypropyl)-4-hydroxypyrrolidine-2-carboxamide] was tested. Which DC50 (KRAS (G12D)) did it give?
**A.** Its DC50 is under 10 nM.

**Q.** And the IC50 (AsPC-1 cells)?
**A.** Its IC50 is under 10 nM.

**Q.** How did the DC50 (KRAS (G12D)) turn out when CCn1nccc1-c1ccc([C@H](C)NC(=O)[C@@H]2C[C@@H](O)CN2C(=O)[C@H](C(C)C)n2cc(-c3ccc(COc4c(-c5c(C)c(F)cc6[nH]ncc56)c(C5CC5)cc5c(N6C[C@H]7C[C@@H]6CN7)nc(OC[C@H](C)OC)nc45)cc3)nn2)cc1 (single isomer, unassigned) [Example 4A] was run?
**A.** Its DC50 is under 10 nM.

**Q.** And the IC50 (AsPC-1 cells)?
**A.** Its IC50 is 10 to 100 nM.

**Q.** How did the DC50 (KRAS (G12D)) turn out when CO[C@@H](C)COc1nc(N2CCCNCC2)c2cc(C3CC3)c(-c3c(C)c(F)cc4[nH]ncc34)c(OCc3ccc(-c4cn([C@H](C(=O)N5C[C@H](O)C[C@H]5C(=O)N[C@@H](CO)c5ccc(-c6scnc6C)cc5)C(C)C)nn4)cc3)c2n1 [Example 179, (2S,4R)-1-((2S)-2-(4-(4-(((6-cyclopropyl-4-(1,4-diazepan-1-yl)-7-(6-fluoro-5-methyl-1H-indazol-4-yl)-2-((S)-2-methoxypropoxy)quinazolin-8-yl)oxy)methyl)phenyl)-1H-1,2,3-triazol-1-yl)-3-methylbutanoyl)-4-hydroxy-N—((R)-2-hydroxy-1-(4-(4-methylthiazol-5-yl)phenyl)ethyl)pyrrolidine-2-carboxamide] was run?
**A.** Its DC50 is under 10 nM.

**Q.** And the IC50 (AsPC-1 cells; Homo sapiens, ASPC1, 144 h)?
**A.** The IC50 was under 10 nM.

Source: US20260295053A1, “COMPOUNDS FOR DEGRADATION AND INHIBITION OF KRAS (G12D) PROTEIN” (Shenzhen Ionova Life Science Co., Ltd., priority 2023, published 2026)
